Patent US12077503B2, “Substituted cyclic amides and their use as herbicides” (FMC CORPORATION, priority 2015, dated 2024)

Experiments:
Test in all cases: Test C preemergence
Format in all cases: in vivo
[1] = tested on: oilseed rape (Brassica napus); settings: for Plant response rating, Oilseed Rape: scale 0 to 100, 0 no effect, 100 complete control
Outline: (§1)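 Assessment: visual, 13–15 d after treatment, 0 (no effect) to 100 (complete control) relative to controls. Treatment: preemergence to seeds in loam-sand soil, or postemergence to 1- to 4-leaf plants in peat-based medium. Formulation: non-phytotoxic solvent mixture with surfactant.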

[2] = tested on: crabgrass, large (large crabgrass, Digitaria sanguinalis); settings: for Plant response rating, Crabgrass, Large: scale 0 to 100, 0 no effect, 100 complete control
Outline: as §1

corn (Zea mays) = settings: for Plant response rating, Corn: scale 0 to 100, 0 no effect, 100 complete control
Outline: as §1

[3] = tested on: morningglory (Ipomoea coccinea); settings: for Plant response rating, Morningglory: scale 0 to 100, 0 no effect, 100 complete control
Outline: as §1

[4] = tested on: nutsedge, yellow (yellow nutsedge, Cyperus esculentus); settings: for Plant response rating, Nutsedge, Yellow: scale 0 to 100, 0 no effect, 100 complete control
Outline: as §1

[5] = tested on: Galium (catchweed bedstraw, Galium aparine); settings: for Plant response rating, Galium: scale 0 to 100, 0 no effect, 100 complete control
Outline: as §1

[6] = tested on: blackgrass (Alopecurus myosuroides); settings: for Plant response rating, Blackgrass: scale 0 to 100, 0 no effect, 100 complete control
Outline: as §1

[7] = tested on: waterhemp (common waterhemp, Amaranthus rudis); settings: for Plant response rating, Waterhemp: scale 0 to 100, 0 no effect, 100 complete control
Outline: as §1

[8] = tested on: ragweed (common ragweed, Ambrosia elatior); settings: for Plant response rating, Ragweed: scale 0 to 100, 0 no effect, 100 complete control
Outline: as §1

[9] = tested on: pigweed (Amaranthus retroflexus); settings: for Plant response rating, Pigweed: scale 0 to 100, 0 no effect, 100 complete control
Outline: as §1

[10] = tested on: ryegrass, Italian (Italian ryegrass, Lolium multiflorum); settings: for Plant response rating, Ryegrass, Italian: scale 0 to 100, 0 no effect, 100 complete control
Outline: as §1

[11] = tested on: wheat (winter wheat, Triticum aestivum); settings: for Plant response rating, Wheat: scale 0 to 100, 0 no effect, 100 complete control
Outline: as §1

[12] = tested on: foxtail, giant (giant foxtail, Setaria faberii); settings: for Plant response rating, Foxtail, Giant: scale 0 to 100, 0 no effect, 100 complete control
Outline: as §1

[13] = tested on: barnyardgrass (Echinochloa crus-galli); settings: for Plant response rating, Barnyardgrass: scale 0 to 100, 0 no effect, 100 complete control
Outline: as §1

[14] = tested on: velvetleaf (Abutilon theophrasti); settings: for Plant response rating, Velvetleaf: scale 0 to 100, 0 no effect, 100 complete control
Outline: as §1

[15] = tested on: johnsongrass (Sorghum halepense); settings: for Plant response rating, Johnsongrass: scale 0 to 100, 0 no effect, 100 complete control
Outline: as §1

soybean (Glycine max) = settings: for Plant response rating, Soybean: scale 0 to 100, 0 no effect, 100 complete control
Outline: as §1

[16] = tested on: lambsquarters (Chenopodium album); settings: for Plant response rating, Lambsquarters: scale 0 to 100, 0 no effect, 100 complete control
Outline: as §1

[17] = 31 g ai/ha, 0 is no effect, 100 is complete control

Structure (SMILES): Cc1ccc(C2CN(C)C(=O)C2C(=O)Nc2ccccc2C(F)(F)F)cc1 (stereo not drawn) [Compound 665]
- Plant response rating (scale of 0 to 100), Oilseed Rape [1, 17]: 30
- Plant response rating, Oilseed Rape ([1]; 62 g ai/ha): 60
- Plant response rating, Oilseed Rape ([1]; 125 g ai/ha): 80
- Plant response rating, Oilseed Rape ([1]; 250 g ai/ha): 85
- Plant response rating (scale of 0 to 100), Crabgrass, Large [2, 17]: 98
- Plant response rating, Crabgrass, Large ([2]; 62 g ai/ha): 100
- Plant response rating, Crabgrass, Large ([2]; 125 g ai/ha): 100
- Plant response rating, Crabgrass, Large ([2]; 250 g ai/ha): 100
- Plant response rating (scale of 0 to 100), Corn (corn (Zea mays); [17]): 0
- Plant response rating, Corn (corn (Zea mays); 62 g ai/ha): 10
- Plant response rating, Corn (corn (Zea mays); 125 g ai/ha): 75
- Plant response rating, Corn (corn (Zea mays); 250 g ai/ha): 70
- Plant response rating (scale of 0 to 100), Morningglory [3, 17]: 0
- Plant response rating, Morningglory ([3]; 62 g ai/ha): 15
- Plant response rating, Morningglory ([3]; 125 g ai/ha): 20
- Plant response rating, Morningglory ([3]; 250 g ai/ha): 10
- Plant response rating (scale of 0 to 100), Nutsedge, Yellow [4, 17]: 0
- Plant response rating, Nutsedge, Yellow ([4]; 62 g ai/ha): 0
- Plant response rating, Nutsedge, Yellow ([4]; 125 g ai/ha): 0
- Plant response rating, Nutsedge, Yellow ([4]; 250 g ai/ha): 0
- Plant response rating (scale of 0 to 100), Galium [5, 17]: 90
- Plant response rating, Galium ([5]; 62 g ai/ha): 90
- Plant response rating, Galium ([5]; 125 g ai/ha): 90
- Plant response rating, Galium ([5]; 250 g ai/ha): 90
- Plant response rating (scale of 0 to 100), Blackgrass [6, 17]: 60
- Plant response rating, Blackgrass ([6]; 62 g ai/ha): 60
- Plant response rating, Blackgrass ([6]; 125 g ai/ha): 90
- Plant response rating, Blackgrass ([6]; 250 g ai/ha): 90
- Plant response rating (scale of 0 to 100), Waterhemp [7, 17]: 50
- Plant response rating, Waterhemp ([7]; 62 g ai/ha): 40
- Plant response rating, Waterhemp ([7]; 125 g ai/ha): 65
- Plant response rating, Waterhemp ([7]; 250 g ai/ha): 85
- Plant response rating (scale of 0 to 100), Ragweed [8, 17]: 40
- Plant response rating, Ragweed ([8]; 62 g ai/ha): 55
- Plant response rating, Ragweed ([8]; 125 g ai/ha): 70
- Plant response rating, Ragweed ([8]; 250 g ai/ha): 75
- Plant response rating (scale of 0 to 100), Pigweed [9, 17]: 0
- Plant response rating, Pigweed ([9]; 62 g ai/ha): 60
- Plant response rating, Pigweed ([9]; 125 g ai/ha): 50
- Plant response rating, Pigweed ([9]; 250 g ai/ha): 50
- Plant response rating (scale of 0 to 100), Ryegrass, Italian [10, 17]: 30
- Plant response rating, Ryegrass, Italian ([10]; 62 g ai/ha): 60
- Plant response rating, Ryegrass, Italian ([10]; 125 g ai/ha): 65
- Plant response rating, Ryegrass, Italian ([10]; 250 g ai/ha): 60
- Plant response rating (scale of 0 to 100), Wheat [11, 17]: 15
- Plant response rating, Wheat ([11]; 62 g ai/ha): 50
- Plant response rating, Wheat ([11]; 125 g ai/ha): 50
- Plant response rating, Wheat ([11]; 250 g ai/ha): 90
- Plant response rating (scale of 0 to 100), Foxtail, Giant [12, 17]: 90
- Plant response rating, Foxtail, Giant ([12]; 62 g ai/ha): 95
- Plant response rating, Foxtail, Giant ([12]; 125 g ai/ha): 98
- Plant response rating, Foxtail, Giant ([12]; 250 g ai/ha): 98
- Plant response rating (scale of 0 to 100), Barnyardgrass [13, 17]: 85
- Plant response rating, Barnyardgrass ([13]; 62 g ai/ha): 95
- Plant response rating, Barnyardgrass ([13]; 125 g ai/ha): 98
- Plant response rating, Barnyardgrass ([13]; 250 g ai/ha): 100
- Plant response rating (scale of 0 to 100), Velvetleaf [14, 17]: 20
- Plant response rating, Velvetleaf ([14]; 62 g ai/ha): 35
- Plant response rating, Velvetleaf ([14]; 125 g ai/ha): 60
- Plant response rating, Velvetleaf ([14]; 250 g ai/ha): 70
- Plant response rating (scale of 0 to 100), Johnsongrass [15, 17]: 10
- Plant response rating, Johnsongrass ([15]; 62 g ai/ha): 25
- Plant response rating, Johnsongrass ([15]; 125 g ai/ha): 25
- Plant response rating, Johnsongrass ([15]; 250 g ai/ha): 45
- Plant response rating (scale of 0 to 100), Soybean (soybean (Glycine max); [17]): 10
- Plant response rating, Soybean (soybean (Glycine max); 62 g ai/ha): 10
- Plant response rating, Soybean (soybean (Glycine max); 125 g ai/ha): 0
- Plant response rating, Soybean (soybean (Glycine max); 250 g ai/ha): 10
- Plant response rating (scale of 0 to 100), Lambsquarters [16, 17]: 10
- Plant response rating, Lambsquarters ([16]; 62 g ai/ha): 45
- Plant response rating, Lambsquarters ([16]; 125 g ai/ha): 70
- Plant response rating, Lambsquarters ([16]; 250 g ai/ha): 85
